Test results as given in patent publication US20110166112A1, “METHOD FOR STIMULATING PLATELET PRODUCTION” (Eisai, Inc., priority 2009, published 2011).

System: subjects with chronic ITP
Test: Combined 28-day and 6-month rollover studies of E5501: safety (TEAEs, serious TEAEs, thromboembolic events, neoplasms, liver toxicity, discontinuations)
Assay type: in vivo, human
Excerpt: Primary Endpoint: The primary endpoint was to assess the safety and tolerability to E5501, including AEs and clinical laboratory parameters, over the 6 additional months of treatment.
In this way, safety data reflect each subject's complete duration of exposure to E5501 starting with lead-in the previous study and continuing into the current study.
Following Protocol Amendment 4, the current study contained a flexible dose regimen; therefore, this study was considered to have an open-label, uncontrolled, single-arm design. […] This was the method used to assess safety. • Grouping method B was based on both treatment received and day 28 platelet response to study drug in Study the previous study. This was the method used for the analysis of efficacy for the FAS and the SE population.
Overall Adverse Events. […] The primary focus is on summary statistics for the entire safety population and provides an overall safety profile for E5501. The summary statistics for each group, e.g., lower ⅓, middle ⅓ and upper ⅓ average daily dose levels, is secondary and provides further safety information across the 3 dose levels.

[1] = Upper ⅓ dose (≧13.5-≦25.7 mg), N=20
[2] = combined studies, E5501-treated subjects overall
[3] = one subject, 5 mg/day, approximately 21 days after initiation, grade 2
[4] = one subject, 20 mg/day, approximately 164 days after initiation, grade 3

## O=C(Nc1nc(-c2cc(Cl)cs2)c(N2CCN(C3CCCCC3)CC2)s1)c1cnc(N2CCC(C(=O)O)CC2)c(Cl)c1 [E5501, 1-(3-chloro-5-{[4-(4-chlorothiophen-2-yl)-5-(4-cyclohexylpiperazin-1-yl)thiazol-2-yl]carbamoyl}pyridine-2-yl)piperidine-4-carboxylic acid]
[1]
  Dose interruption due to TEAE, % of subjects: (10.0) %
  Dose interruption due to TEAE, n of subjects: 2
  Dyspnoea, % of subjects: (5.0) %
  Dyspnoea, n of subjects: 1
  Ecchymosis, % of subjects: (10.0) %
  Ecchymosis, n of subjects: 2
  Epistaxis, % of subjects: (40.0) %
  Epistaxis, n of subjects: 8
  Fatigue, % of subjects: (35.0) %
  Fatigue, n of subjects: 7
  Gingival bleeding, % of subjects: (20.0) %
  Gingival bleeding, n of subjects: 4
  Headache, % of subjects: (40.0) %
  Headache, n of subjects: 8
  Insomnia, % of subjects: (5.0) %
  Insomnia, n of subjects: 1
  Migraine, % of subjects: (10.0) %
  Migraine, n of subjects: 2
  Mouth haemorrhage, % of subjects: (10.0) %
  Mouth haemorrhage, n of subjects: 2
  Nausea, % of subjects: (20.0) %
  Nausea, n of subjects: 4
  Pain in extremity, % of subjects: (10.0) %
  Pain in extremity, n of subjects: 2
  Petechiae, % of subjects: (10.0) %
  Petechiae, n of subjects: 2
  Platelet count increased, % of subjects: (10.0) %
  Platelet count increased, n of subjects: 2
  Serious TEAE Cerebrovascular accident, n (%) of subjects: 1 (5.0) n (%)
  Serious TEAE Chest pain, n (%) of subjects: 1 (5.0) n (%)
  Serious TEAE Diarrhoea, n (%) of subjects: 1 (5.0) n (%)
  Serious TEAE Haemorrhage intracranial, n (%) of subjects: 0 n (%)
  Serious TEAE Lethargy, n (%) of subjects: 0 n (%)
  Serious TEAE Mitral valve incompetence, n (%) of subjects: 1 (5.0) n (%)
  Serious TEAE Myocardial infarction, n (%) of subjects: 0 n (%)
  Serious TEAE Nausea, n (%) of subjects: 0 n (%)
  Serious TEAE Pelvic venous thrombosis, n (%) of subjects: 0 n (%)
  Serious TEAE Platelet count decreased, n (%) of subjects: 0 n (%)
  Serious TEAE Pneumonia, n (%) of subjects: 0 n (%)
  Serious TEAE Pyrexia, n (%) of subjects: 1 (5.0) n (%)
  Serious TEAE Thrombocytopenia, n (%) of subjects: 0 n (%)
  Serious TEAE Transient ischaemic attack, n (%) of subjects: 0 n (%)
  Serious TEAE Vomiting, n (%) of subjects: 1 (5.0) n (%)
  Serious TEAE, % of subjects: (5.0) %
  Serious TEAE, SOC Blood and lymphatic system disorders, n (%) of subjects: 0 n (%)
  Serious TEAE, SOC Cardiac disorders, n (%) of subjects: 1 (5.0) n (%)
  Serious TEAE, SOC Gastrointestinal disorders, n (%) of subjects: 1 (5.0) n (%)
  Serious TEAE, SOC General disorders and administration site conditions, n (%) of subjects: 1 (5.0) n (%)
  Serious TEAE, SOC Infections and infestations, n (%) of subjects: 0 n (%)
  Serious TEAE, SOC Investigations, n (%) of subjects: 0 n (%)
  Serious TEAE, SOC Nervous system disorders, n (%) of subjects: 1 (5.0) n (%)
  Serious TEAE, SOC Vascular disorders, n (%) of subjects: 0 n (%)
  Serious TEAE, n of subjects: 1
  Serious treatment-related TEAEs, n of subjects: 0
  Severe (grade 3-4) TEAEs, % of subjects: (35.0) %
  Severe (grade 3-4) TEAEs, n of subjects: 7
  Somnolence, % of subjects: (10.0) %
  Somnolence, n of subjects: 2
  Suspected drug-related AEs, % of subjects: (65.0) %
  Suspected drug-related AEs, n of subjects: 13
  Upper respiratory tract infection, % of subjects: (15.0) %
  Upper respiratory tract infection, n of subjects: 3
  Vomiting, % of subjects: (20.0) %
  Vomiting, n of subjects: 4
  Withdrawal due to TEAE, % of subjects: (10.0) %
  Withdrawal due to TEAE, n of subjects: 2
Both studies combined
  treated subjects with thromboembolic events: approximately 6%
Both studies combined, doses of 10 mg/day or higher
  subjects with thromboembolic events: 4 subjects
Combined studies
  subjects with TEAE possibly or probably treatment related: 64.1%
  subjects with TEAEs that led to interruption of study treatment: 8 subjects
  subjects with TEAEs that led to premature discontinuation of study treatment: Seven
Combined studies, 64 subjects
  subjects who experienced one or more TEAEs: 96.9%
[2]
  Epistaxis: 23.4%
  Fatigue: 34.4%
  Headache: 32.8%
  Vomiting: 10.9%
  arthralgia: 14.1%
  contusion: 18.8%
  diarrhea: 14.1%
  gingival bleeding: 10.9%
Combined studies, all
  serious TEAEs: 16 cases
  subjects reporting serious TEAEs: Five
During the study
  deaths: No deaths occurred
During this study
  neoplastic events of interest: Three
Lower ⅓ dose level group
  serious TEAEs: 1 cases
  subjects reporting serious TEAEs: 1 subjects
Middle ⅓ dose level group
  serious TEAEs: 9 cases
  subjects reporting serious TEAEs: 3 subjects
[3]
  serum ALT: 210 U/L
  serum AST: 143 U/L
[4]
  ALT: 421 U/L
  AST: 431 U/L
Upper ⅓ dose level group
  serious TEAEs: 6 cases
  subjects reporting serious TEAEs: 1 subjects
